Results as given in patent EP1310247A1 (priority 1997, dated 1999).

Legend:
Male Swiss-Webster mice [1] = assay: Locomotor activity: stimulant and depressant effects (horizontal distance); assay type: in vivo
dogs = assay: Dosage required to raise mean arterial pressure (MAP) by 10%; assay type: in vivo; details: experimentally determined
Protocol: Nasal airway pressure was measured using a Validyne pressure transducer (Validyne Engineering, Northridge, CA) with a 2.25 cm H2O range membrane connected to a multipen recorder (Grass Instruments, Quincy, MA). Air was passed through an in-line direct measure flow meter (Gilmont Instruments, Barrington, IL) connected to the nasal opening cannula. Pressure was measured in the line with a constant flow rate (150 ml/min) of air. Drugs were directly injected into the jugular vein using a 30 gauge needle. All injections were of a constant 0.1 ml volume. In the congestion challenged groups congestion was achieved by an intranasal administration of histamine (50 mM, 0.02 ml/nostril). The histamine was expelled after 2 minutes with a short nasal cannula airflow and subsequent enantiomeric drug doses were directly injected into the jugular vein. The dosage chosen for each drug was the amount needed to increase the mean arterial pressure (MAP) of the animal by 10%; this dosage served as the "100%" dose for the initial nasal airway studies. […] The dosage required for rats was calculated by proportionately adjusting the experimentally determined dog dosage to account for the lesser weight of the rats.

Male Swiss-Webster mice [2] = assay: H1 antihistamine (triprolidine) interaction study, locomotor activity; assay type: in vivo; details: pretreatment with 0.01, 0.1, or 1.0 mg/kg triprolidine 20 minutes before
Protocol: H1 antihistamine interaction studies. […] The mice were then immediately placed in the activity-testing apparatus for a 2 hour session. […] Eight mice were tested for each triprolidine/sympathomimetic combination.
The dose-effect data were considered in 1-way analysis of variance, and planned individual comparisons were conducted between each dose and the saline control group.

Sprague Dawley rats [3] = assay: Nasal airway pressure / resistance in anesthetized rats, normal and histamine-challenged; assay type: in vivo; details: 75% dose
Sprague Dawley rats [4] = assay: Mean arterial blood pressure after 75% dose in rats; details: compared with (+)-ephedrine
α2-Receptor = assay type: binding, mongrel dogs

SMILES	Dosage required to raise MAP by 10%, Dog (dogs) [µg/kg]	interaction with triprolidine pretreatment (horizontal movement) (Male Swiss-Webster mice [2])	further results
CC(N)Cc1ccccc1 (single isomer, unassigned; (+)) [(+)-amphetamine]			Locomotor stimulant effects, time course (Male Swiss-Webster mice [1]; 2-hour session after i.p. injection, result in words): dose- and time-dependent increase in the distance traversed
CN[C@H](C)[C@@H](O)c1ccccc1 [(+)-ephedrine]	200	no drug interaction is apparent	effect on normal airway decongestion (Sprague Dawley rats [3]): the same efficacious effect on normal airway decongestion
CN[C@@H](C)[C@@H](O)c1ccccc1 [(+)-pseudoephedrine]	200	increased horizontal movement is observed	
CN[C@@H](C)[C@H](O)c1ccccc1 [(-)-ephedrine]	100	increased horizontal movement is observed	effect on normal airway decongestion (Sprague Dawley rats [3]): the same efficacious effect on normal airway decongestion; increase in blood pressure (Sprague Dawley rats [4]): slightly greater (though significant) increase in blood pressure than (+)-ephedrine
CNC[C@H](O)c1cccc(O)c1 [(-)-phenylephrine]	10		
CNC[C@H](O)c1ccc(O)c(O)c1 [Epinephrine]			displacement of bound p-iodoclonidine (α2-Receptor): easily displaced all bound p-iodoclonidine
Cc1ccc(/C(=C\CN2CCCC2)c2ccccn2)cc1 [triprolidine]			effect on horizontal distance (Male Swiss-Webster mice [1]; mouse, in vivo): failed to affect horizontal distance; effect on locomotion (Male Swiss-Webster mice [1]; triprolidine alone, 50 and 100 mg/kg, beginning within 10 minutes, lasting 30 to 40 minutes): Dose-dependent depression of locomotion
